Data as given in PMC6152983, “An amine oxidase gene from mud crab, Scylla paramamosain, regulates the neurotransmitters serotonin and dopamine in vitro” (PLoS ONE, 2018).

Target: T1, SpAMO (Scylla paramamosain, UniProt A0A3G2KVP6)
T1 sequence (A0A3G2KVP6 2-506): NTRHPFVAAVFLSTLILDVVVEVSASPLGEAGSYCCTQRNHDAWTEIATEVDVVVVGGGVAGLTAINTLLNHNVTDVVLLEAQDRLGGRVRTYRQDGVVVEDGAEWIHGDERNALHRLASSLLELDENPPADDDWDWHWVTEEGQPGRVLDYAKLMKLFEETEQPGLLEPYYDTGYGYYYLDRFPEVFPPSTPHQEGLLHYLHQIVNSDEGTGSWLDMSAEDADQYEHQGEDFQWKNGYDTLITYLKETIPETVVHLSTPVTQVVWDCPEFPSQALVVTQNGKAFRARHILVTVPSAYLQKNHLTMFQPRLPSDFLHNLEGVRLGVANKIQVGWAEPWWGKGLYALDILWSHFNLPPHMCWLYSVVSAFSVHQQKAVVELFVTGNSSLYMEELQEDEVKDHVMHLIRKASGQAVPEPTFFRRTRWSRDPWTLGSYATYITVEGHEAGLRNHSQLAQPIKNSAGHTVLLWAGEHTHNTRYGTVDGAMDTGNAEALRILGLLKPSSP
Experiment: luminol/horseradish peroxidase chemiluminescence of H2O2
Assay type: biochemical
Settings: glycine buffer pH 8.0, 37 °C; 50 μL of 1.5 mmol/L substrate

NCCc1ccc(O)c(O)c1 [dopamine]
luminol/horseradish peroxidase chemiluminescence of H2O2: oxidative deamination of 5-HT and DA by SpAMO was significantly stronger
